# Results from PubChem BioAssay AID1963969 (Molecular Pharmacology Branch, DTP, NCI, 2024).
# Tested on: 817829-284-R-J1-PDC multi-cell spheroid viability
# Test: Anticancer human tumor 817829-284-R-J1-PDC patient-derived colon adenocarcinoma cell line growth inhibition [PI3K]
# Conditions: for IC50: curve of first compound; for viability, T/C: stronger effect = lower value
# Procedure, shortened: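 Stroma-containing spheroids: tumor line, pooled-donor HUVEC, hMSC. Treatments: targeted agents with PI3K inhibitors. Dosing: clinically relevant, half-log spacing, 10 microM ceiling without known Cmax. Read-out: cell viability.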
# 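Further: spheroids exposed to agents for seven days before readout.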
# 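Wherever viability, T/C is given: percent of vehicle DMSO control viability which is 100%.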
structure (smiles),measurement,setting,value
CCN1CCN(Cc2ccc(Nc3ncc(F)c(-c4cc(F)c5nc(C)n(C(C)C)c5c4)n3)nc2)CC1 + Cc1nc(NC(=O)N2CCCC2C(N)=O)sc1-c1ccnc(C(C)(C)C(F)(F)F)c1,IC50,second compound 0.0316 µM,638 nM
same,IC50,second compound 0.1 µM,316 nM
same,IC50,second compound 0.316 µM,325 nM
same,IC50,second compound 1 µM,122 nM
same,IC50,second compound 3.16 µM,56.9 nM
same,IC50,second compound 10 µM,6.96 nM
same,"viability, T/C","second compound 0.0316 µM, first compound 0.00316 µM",75.4%
same,"viability, T/C","second compound 0.0316 µM, first compound 0.01 µM",55.4%
same,"viability, T/C","second compound 0.0316 µM, first compound 0.0316 µM",90.8%
same,"viability, T/C","second compound 0.0316 µM, first compound 0.1 µM",52.5%
same,"viability, T/C","second compound 0.0316 µM, first compound 0.316 µM",66.5%
same,"viability, T/C","second compound 0.0316 µM, first compound 1 µM",42.1%
same,"viability, T/C","second compound 0.1 µM, first compound 0.00316 µM",91.5%
same,"viability, T/C","second compound 0.1 µM, first compound 0.01 µM",70.8%
same,"viability, T/C","second compound 0.1 µM, first compound 0.0316 µM",112%
same,"viability, T/C","second compound 0.1 µM, first compound 0.1 µM",46.7%
same,"viability, T/C","second compound 0.1 µM, first compound 0.316 µM",64.4%
same,"viability, T/C","second compound 0.1 µM, first compound 1 µM",59.1%
same,"viability, T/C","second compound 0.316 µM, first compound 0.00316 µM",76.4%
same,"viability, T/C","second compound 0.316 µM, first compound 0.01 µM",53.1%
same,"viability, T/C","second compound 0.316 µM, first compound 0.0316 µM",74.9%
same,"viability, T/C","second compound 0.316 µM, first compound 0.1 µM",49.9%
same,"viability, T/C","second compound 0.316 µM, first compound 0.316 µM",48.2%
same,"viability, T/C","second compound 0.316 µM, first compound 1 µM",47.1%
same,"viability, T/C","second compound 1 µM, first compound 0.00316 µM",76%
same,"viability, T/C","second compound 1 µM, first compound 0.01 µM",63.5%
same,"viability, T/C","second compound 1 µM, first compound 0.0316 µM",56.5%
same,"viability, T/C","second compound 1 µM, first compound 0.1 µM",47.8%
same,"viability, T/C","second compound 1 µM, first compound 0.316 µM",51.5%
same,"viability, T/C","second compound 1 µM, first compound 1 µM",43.7%
same,"viability, T/C","second compound 3.16 µM, first compound 0.00316 µM",53.1%
same,"viability, T/C","second compound 3.16 µM, first compound 0.01 µM",63.5%
same,"viability, T/C","second compound 3.16 µM, first compound 0.0316 µM",61%
same,"viability, T/C","second compound 3.16 µM, first compound 0.1 µM",39.4%
same,"viability, T/C","second compound 3.16 µM, first compound 0.316 µM",41.6%
same,"viability, T/C","second compound 3.16 µM, first compound 1 µM",42.6%
same,"viability, T/C","second compound 10 µM, first compound 0.00316 µM",66.1%
same,"viability, T/C","second compound 10 µM, first compound 0.01 µM",35.1%
same,"viability, T/C","second compound 10 µM, first compound 0.0316 µM",51.9%
same,"viability, T/C","second compound 10 µM, first compound 0.1 µM",38.4%
same,"viability, T/C","second compound 10 µM, first compound 0.316 µM",46.7%
same,"viability, T/C","second compound 10 µM, first compound 1 µM",41%
